{
  "source": "paper PMC11729419",
  "about": "“Thiol-Reactive or Redox-Active: Revising a Repurposing Screen Led to a New Invalidation Pipeline and Identified a True Noncovalent Inhibitor Against Papain-like Protease from SARS-CoV-2” (ACS Pharmacology & Translational Science, 2024)",
  "key": {"USP14, USP7, cathepsin-L": {"system": "USP14, USP7, cathepsin-L", "format": "biochemical, human", "details": "10 μM; 1 mM DTT", "protocol": "The assay was performed according to the manufacturer protocol, adapted to 384-well format with a final volume of 10 μL. […] 5 μL of cathepsin-L was added and incubated for 30 min at 25 °C. The enzymatic reaction was initiated by adding 5 μL substrate. […] Final assay concentrations of cathepsin-L and substrate were 0.01 ng/μL and 5 μM, respectively.\nPlates were sealed and incubated for 30 min at 25 °C, followed by adding 5 μL/0.5 μM Ubiquitin-AMC (R&D Systems #U-550-050) substrate. The fluorescence signal was measured after 30 min of incubation (Ex/Em = 340/460; EnVision, PerkinElmer). […] The assay buffer is 50 mM Tris, 150 mM NaCl, 1 mM DTT, and 0.01% Tween 20 (pH 7.5)."}, "SARS-CoV-2 PLpro-NAB": {"target": "SARS-CoV-2 PLpro-NAB (Severe acute respiratory syndrome coronavirus 2, UniProt P0DTD1)", "assay": "biochemical", "details": "for Inhibition in L-cysteine buffer versus DTT buffer (dose-response): 1 mM L-cysteine vs 1 mM DTT; for Inhibitory activity on retest in 1 mM L-cysteine: 50% inhibition at 20 μM; for HC PLpro-NAB inhibition [%] 20 μM triplicates 1 mM DTT buffer: hit confirmation, DMSO = 0%; for HC PLpro-NAB inhibition [%] 20 μM triplicates 1 mM DTT buffer / HP PLpro-NAB inhibition [%] 20 μM triplicates 1 mM L-cys buffer: average (SD), 20 μM PR619 = 100%; for HP PLpro-NAB inhibition [%] 20 μM triplicates 1 mM L-cys buffer / IC50: hit profiling"}, "SARS-CoV-2 PLpro": {"target": "SARS-CoV-2 PLpro (Severe acute respiratory syndrome coronavirus 2, UniProt P0DTD1)", "format": "biochemical", "details": "dose-response, ISG15 substrate"}, "[1]": {"details": "Table S1, 20 µM, DTT buffer"}, "SARS-CoV-2 Mpro": {"target": "SARS-CoV-2 Mpro (Severe acute respiratory syndrome coronavirus 2, UniProt P0DTD1)", "format": "biochemical", "details": "10 μM; 1 mM DTT"}, "[2]": {"system": "SARS-CoV-2 BetaCoV/Belgium/GHB-03021/2020 strain", "format": "cell-based", "details": "300 μM, 2 μM CP-100356"}},
  "note": "Where two headings read alike, the source gives them in different places.",
  "data": [
    {"smiles": "C/C(=N\\NC(=N)N)c1cc(NC(=O)CCCCCCCCC(=O)Nc2cc(/C(C)=N/NC(=N)N)cc(/C(C)=N/NC(=N)N)c2)cc(/C(C)=N/NC(=N)N)c1", "note": "[semapimod]", "values": [
      {"measurement": "Selectivity versus human USP14, USP7, cathepsin-L", "setting": "USP14, USP7, cathepsin-L", "result": "active across all of the tested targets"},
      {"measurement": "Inhibition in L-cysteine buffer versus DTT buffer (dose-response)", "setting": "SARS-CoV-2 PLpro-NAB", "result": "did not show variations in inhibition potency or thermal stability"},
      {"measurement": "Inhibitory activity on retest in 1 mM L-cysteine", "setting": "SARS-CoV-2 PLpro-NAB", "result": "retained their inhibitory activity"},
      {"measurement": "HC PLpro-NAB inhibition [%] 20 μM triplicates 1 mM DTT buffer", "setting": "SARS-CoV-2 PLpro-NAB; 1 mM DTT buffer, listed as semapimod (EOS)", "result": "140.16 (2.99) %"},
      {"measurement": "HC PLpro-NAB inhibition [%] 20 μM triplicates 1 mM DTT buffer", "setting": "SARS-CoV-2 PLpro-NAB; 1 mM DTT buffer, listed as semapimod (FhG)", "result": "118.80 (3.35) %"},
      {"measurement": "HP PLpro-NAB inhibition [%] 20 μM triplicates 1 mM L-cys buffer", "setting": "SARS-CoV-2 PLpro-NAB; 1 mM L-cys buffer, listed as semapimod (EOS)", "result": "50.46 (6.98) %"},
      {"measurement": "HP PLpro-NAB inhibition [%] 20 μM triplicates 1 mM L-cys buffer", "setting": "SARS-CoV-2 PLpro-NAB; 1 mM L-cys buffer, listed as semapimod (FhG)", "result": "51.28 (5.64) %"},
      {"measurement": "IC50", "setting": "SARS-CoV-2 PLpro-NAB; read-out: HP PLpro-NAB IC50 [μM] duplicates 1 mM L-cys buffer, 1 mM L-cys buffer, listed as semapimod (EOS)", "result": "> 20", "unit": "µM"},
      {"measurement": "IC50", "setting": "SARS-CoV-2 PLpro-NAB; read-out: HP PLpro-NAB IC50 [μM] duplicates 1 mM L-cys buffer, 1 mM L-cys buffer, listed as semapimod (FhG)", "result": 14.4, "unit": "µM"},
      {"measurement": "IC50", "setting": "SARS-CoV-2 PLpro-NAB; read-out: HP PLpro-NAB IC50 [μM] triplicates 1 mM DTT buffer, 1 mM DTT buffer, listed as semapimod (EOS)", "result": 1.21, "unit": "µM"},
      {"measurement": "IC50", "setting": "SARS-CoV-2 PLpro-NAB; read-out: HP PLpro-NAB IC50 [μM] triplicates 1 mM DTT buffer, 1 mM DTT buffer, listed as semapimod (FhG)", "result": 5.23, "unit": "µM"},
      {"measurement": "Potency against PLpro compared with PLpro-NAB", "setting": "SARS-CoV-2 PLpro", "result": "activity exclusively against PLpro-NAB"},
      {"measurement": "Interference inhibition [%] 20 µM based on product interference DTT BUFFER", "setting": "[1]; listed as Semapimod (EOS)", "result": 9.91, "unit": "%"},
      {"measurement": "Interference inhibition [%] 20 µM based on product interference DTT BUFFER", "setting": "[1]; listed as Semapimod (FhG)", "result": -5.72, "unit": "%"},
      {"measurement": "Preference PLpro over Mpro", "setting": "SARS-CoV-2 Mpro", "result": "preferential inhibition of PLpro over Mpro"}
    ]},
    {"smiles": "O=c1c(O)cccc2cc(O)c(O)c(O)c12", "note": "[purpurogallin]", "values": [
      {"measurement": "Inhibition in L-cysteine buffer versus DTT buffer (dose-response)", "setting": "SARS-CoV-2 PLpro-NAB", "result": "increased inhibition"},
      {"measurement": "Inhibitory activity on retest in 1 mM L-cysteine", "setting": "SARS-CoV-2 PLpro-NAB", "result": "retained their inhibitory activity"},
      {"measurement": "inhibition at 20 µM", "setting": "SARS-CoV-2 PLpro-NAB; read-out: HC PLpro-NAB inhibition [%] 20 μM triplicates 1 mM DTT buffer", "result": 62.8, "unit": "%"},
      {"measurement": "inhibition at 20 µM", "setting": "SARS-CoV-2 PLpro-NAB; read-out: HP PLpro-NAB inhibition [%] 20 μM triplicates 1 mM L-cys buffer", "result": 101, "unit": "%"},
      {"measurement": "Potency against PLpro compared with PLpro-NAB", "setting": "SARS-CoV-2 PLpro", "result": "higher potency against PLpro compared with PLpro-NAB"},
      {"measurement": "Interference inhibition [%] 20 µM based on product interference DTT BUFFER", "setting": "[1]", "result": 12.84, "unit": "%"},
      {"measurement": "Preference PLpro over Mpro", "setting": "SARS-CoV-2 Mpro", "result": "preferential inhibition of PLpro over Mpro"}
    ]},
    {"smiles": "CCS(=O)(=O)N1CCC([C@@H](C)n2c(C)c(C(=O)NCc3c(OC)cc(C)[nH]c3=O)c3ccccc32)CC1", "note": "[CPI-169]", "values": [
      {"measurement": "Spike RNA copy number", "setting": "[2]", "result": "reduced the Spike RNA copy number significantly"},
      {"measurement": "Interference inhibition [%] 20 µM based on product interference DTT BUFFER", "setting": "[1]; listed as CPI-169 (EOS)", "result": 9.34, "unit": "%"},
      {"measurement": "Interference inhibition [%] 20 µM based on product interference DTT BUFFER", "setting": "[1]; listed as CPI-169 (FhG)", "result": -0.73, "unit": "%"},
      {"measurement": "Preference PLpro over Mpro", "setting": "SARS-CoV-2 Mpro", "result": "preferential inhibition of PLpro over Mpro"}
    ]}
  ]
}
